This is an account of results in PubChem BioAssay AID1745844 (Carcinogenic Potency Database (CPDB), 2022).

Activity calls are given as the source filed them. The rule behind the calls is not given here.

The test system of the data set is rodent lifetime carcinogenesis bioassay, tumor incidence TD50. Nature of the data set: chronic cancer bioassays in animals – CPDB, compiled studies (AID 1745844).

Take `CCN(CC)C(=S)S`: the TD50 (commonly the dose at which the toxic effect under study appears in half of the subjects) came to 607 mg/kg/day (mouse, strain B6AKF1, females, oral dosing, site: lung, lesion: adenoma, dosed 76 weeks, study length 76 weeks); 403 mg/kg/day (mouse, strain B6AKF1, males, oral dosing, site: any site (literature study), lesion: several types, types named in the paper, dosed 76 weeks, study length 76 weeks); 155 mg/kg/day (mouse, strain B6AKF1, males, oral dosing, site: lung, lesion: adenoma, dosed 76 weeks, study length 76 weeks); 27000 mg/kg/day (mouse, strain B6C3F1, females, in feed, site: liver, lesion: hepatocellular adenoma + hepatocellular carcinoma + neoplastic nodule, dosed 108 weeks, study length 108 weeks); 4760 mg/kg/day (mouse, strain B6C3F1, females, in feed, site: lung, lesion: alveolar/bronchiolar adenoma + alveolar/bronchiolar carcinoma, dosed 108 weeks, study length 108 weeks); 10300 mg/kg/day (mouse, strain B6C3F1, males, in feed, site: lung, lesion: alveolar/bronchiolar adenoma + alveolar/bronchiolar carcinoma, dosed 108 weeks, study length 108 weeks). The TD50 came out at 71.4 mg/kg/day (mouse, strain B6C3F1, males, oral dosing, site: any site (literature study), lesion: several types, types named in the paper, dosed 76 weeks, study length 76 weeks); 68.7 mg/kg/day (mouse, strain B6C3F1, males, oral dosing, site: liver, lesion: hepatoma, dosed 76 weeks, study length 76 weeks); 468 mg/kg/day (mouse, strain B6C3F1, males, oral dosing, site: lung, lesion: adenoma, dosed 76 weeks, study length 76 weeks). In addition, the carcinogen call (mouse, strain B6C3F1, females, in feed, site: any site (literature study), lesion: several types, types named in the paper, dosed 108 weeks, study length 108 weeks) was “negative (inactive)”; the carcinogen call (mouse, strain B6C3F1, males, in feed, site: any site (literature study), lesion: several types, types named in the paper, dosed 108 weeks, study length 108 weeks) was “negative (inactive)”; the carcinogen call (rat, strain Fischer 344, females, in feed, site: any site (literature study), lesion: several types, types named in the paper, dosed 104 weeks, study length 104 weeks) is “negative (inactive)”; the carcinogen call (rat, strain Fischer 344, males, in feed, site: any site (literature study), lesion: several types, types named in the paper, dosed 104 weeks, study length 104 weeks) is “negative (inactive)”.

For `Nc1ccc(Cl)cc1N`, the TD50 runs as follows: (mouse, strain B6C3F1, females, in feed, site: any site (literature study), lesion: several types, types named in the paper, dosed 78 weeks, study length 95 weeks) 4090 mg/kg/day; (mouse, strain B6C3F1, females, in feed, site: liver, lesion: hepatocellular adenoma + hepatocellular carcinoma + neoplastic nodule, dosed 78 weeks, study length 95 weeks) 2240 mg/kg/day; (mouse, strain B6C3F1, females, in feed, site: liver, lesion: hepatocellular adenoma + hepatocellular carcinoma, dosed 78 weeks, study length 95 weeks) 2240 mg/kg/day; (mouse, strain B6C3F1, females, in feed, site: liver, lesion: hepatocellular carcinoma, dosed 78 weeks, study length 95 weeks) 5060 mg/kg/day; (mouse, strain B6C3F1, males, in feed, site: any site (literature study), lesion: several types, types named in the paper, dosed 78 weeks, study length 95 weeks) 905 mg/kg/day; (mouse, strain B6C3F1, males, in feed, site: liver, lesion: hepatocellular adenoma + hepatocellular carcinoma + neoplastic nodule, dosed 78 weeks, study length 95 weeks) 957 mg/kg/day. The TD50 (mouse, strain B6C3F1, males, in feed, site: liver, lesion: hepatocellular adenoma + hepatocellular carcinoma, dosed 78 weeks, study length 95 weeks) was 957 mg/kg/day; the TD50 (mouse, strain B6C3F1, males, in feed, site: liver, lesion: hepatocellular carcinoma, dosed 78 weeks, study length 95 weeks) was 1370 mg/kg/day; the TD50 (mouse, strain B6C3F1, males, in feed, site: lung, lesion: alveolar/bronchiolar adenoma + alveolar/bronchiolar carcinoma, dosed 78 weeks, study length 95 weeks) was found to be 21300 mg/kg/day; the TD50 (rat, strain Fischer 344, females, in feed, site: any site (literature study), lesion: several types, types named in the paper, dosed 78 weeks, study length 105 weeks) is 351 mg/kg/day; the TD50 (rat, strain Fischer 344, females, in feed, site: liver, lesion: hepatocellular adenoma + hepatocellular carcinoma + neoplastic nodule, dosed 78 weeks, study length 105 weeks) was determined as 6500 mg/kg/day; the TD50 (rat, strain Fischer 344, females, in feed, site: stomach + urinary bladder, lesion: squamous-cell papilloma + papillomatosis + papillary carcinoma + papilloma, NOS + transitional-cell carcinoma + transitional-cell, dosed 78 weeks, study length 105 weeks) stood at 212 mg/kg/day. The TD50 reads like this: (rat, strain Fischer 344, females, in feed, site: stomach, lesion: squamous-cell papilloma, dosed 78 weeks, study length 105 weeks) 5270 mg/kg/day; (rat, strain Fischer 344, females, in feed, site: thyroid gland, lesion: follicular-cell adenoma + follicular-cell carcinoma, dosed 78 weeks, study length 105 weeks) 2160 mg/kg/day; (rat, strain Fischer 344, females, in feed, site: urinary bladder, lesion: papillary carcinoma + transitional-cell carcinoma, dosed 78 weeks, study length 105 weeks) 429 mg/kg/day; (rat, strain Fischer 344, females, in feed, site: urinary bladder, lesion: papillomatosis + papillary carcinoma + papilloma, NOS + transitional-cell carcinoma + transitional-cell papilloma, dosed 78 weeks, study length 105 weeks) 212 mg/kg/day; (rat, strain Fischer 344, males, in feed, site: any site (literature study), lesion: several types, types named in the paper, dosed 78 weeks, study length 105 weeks) 362 mg/kg/day; (rat, strain Fischer 344, males, in feed, site: liver, lesion: hepatocellular adenoma + hepatocellular carcinoma + neoplastic nodule, dosed 78 weeks, study length 105 weeks) 1240 mg/kg/day. Further, the TD50 (rat, strain Fischer 344, males, in feed, site: stomach + urinary bladder, lesion: squamous-cell carcinoma + squamous-cell papilloma + papilloma, NOS + transitional-cell carcinoma + transitional-cell papilloma, dosed 78 weeks, study length 105 weeks) amounted to 197 mg/kg/day; the TD50 (rat, strain Fischer 344, males, in feed, site: stomach, lesion: squamous-cell carcinoma + squamous-cell papilloma, dosed 78 weeks, study length 105 weeks) is 2500 mg/kg/day; the TD50 (rat, strain Fischer 344, males, in feed, site: thyroid gland, lesion: follicular-cell adenoma + follicular-cell carcinoma, dosed 78 weeks, study length 105 weeks) worked out at 3380 mg/kg/day; the TD50 (rat, strain Fischer 344, males, in feed, site: urinary bladder, lesion: papilloma, NOS + transitional-cell carcinoma + transitional-cell papilloma, dosed 78 weeks, study length 105 weeks) was 216 mg/kg/day; the TD50 (rat, strain Fischer 344, males, in feed, site: urinary bladder, lesion: squamous-cell carcinoma, dosed 78 weeks, study length 105 weeks) was 3780 mg/kg/day; the TD50 (rat, strain Fischer 344, males, in feed, site: urinary bladder, lesion: transitional-cell carcinoma, dosed 78 weeks, study length 105 weeks) was 363 mg/kg/day.

As for `CCCCN(CCCCO)N=O`, the TD50 was 0.169 mg/kg/day (rat, strain F344/DuCrj, males, in drinking water, site: liver, lesion: hyperplastic nodule, dosed 106 weeks, study length 112 weeks); 0.447 mg/kg/day (rat, strain F344/DuCrj, males, in drinking water, site: urinary bladder, lesion: papilloma, dosed 106 weeks, study length 112 weeks); 0.432 mg/kg/day (rat, strain F344/DuCrj, males, in drinking water, site: urinary bladder, lesion: transitional-cell carcinoma, dosed 106 weeks, study length 112 weeks); 0.386 mg/kg/day (rat, strain Fischer 344, males, in drinking water, site: testis, lesion: Leydig-cell tumor, dosed 78 weeks, study length 78 weeks); 0.175 mg/kg/day (rat, strain Fischer 344, males, in drinking water, site: urinary bladder, lesion: transitional-cell carcinoma, dosed 78 weeks, study length 78 weeks); 185 mg/kg/day (rat, strain Fischer 344, males, in feed, site: liver, lesion: hepatocellular carcinoma, dosed 103 weeks, study length 103 weeks). The TD50 by setting is: (rat, strain Fischer 344, males, in feed, site: urinary bladder, lesion: carcinoma, dosed 103 weeks, study length 103 weeks) 0.549 mg/kg/day; (rat, strain Sprague-Dawley, males, by gavage, site: lung, lesion: carcinoma, dosed 39 weeks, study length 74 weeks) 166 mg/kg/day; (rat, strain Sprague-Dawley, males, by gavage, site: urinary bladder, lesion: several types, types named in the paper, dosed 39 weeks, study length 74 weeks) 1.17 mg/kg/day; (rat, strain Sprague-Dawley, males, in drinking water, site: liver, lesion: liver-cell carcinoma, dosed 104 weeks, study length 104 weeks) 271 mg/kg/day; (rat, strain Sprague-Dawley, males, in drinking water, site: urinary bladder, lesion: carcinoma, dosed 104 weeks, study length 104 weeks) 3.3 mg/kg/day. Further, the carcinogen call (rat, strain Fischer 344, females, in feed, site: urinary bladder, lesion: carcinoma, dosed 103 weeks, study length 103 weeks) was “positive”.

Turning to `N#[N+]c1ccccc1`, the TD50 by setting is: (hamster, strain Syrian Golden, females, by gavage, site: liver, lesion: Kupffer-cell sarcoma, dosed 90 weeks, study length 90 weeks) 66.1 mg/kg/day (inactive); (hamster, strain Syrian Golden, females, by gavage, site: liver, lesion: cholangioma, dosed 90 weeks, study length 90 weeks) 293 mg/kg/day (inactive); (hamster, strain Syrian Golden, females, by gavage, site: liver, lesion: hemangioma, dosed 90 weeks, study length 90 weeks) 66.1 mg/kg/day (inactive); (hamster, strain Syrian Golden, males, by gavage, site: liver, lesion: hemangioma, dosed 90 weeks, study length 90 weeks) 293 mg/kg/day (inactive); (mouse, strain Swiss albino, females, by gavage, site: lung, lesion: adenocarcinoma, dosed 52 weeks, study length 141 weeks) 39.4 mg/kg/day; (mouse, strain Swiss albino, females, by gavage, site: lung, lesion: adenoma, dosed 52 weeks, study length 141 weeks) 27.1 mg/kg/day. The TD50 is 16.5 mg/kg/day (mouse, strain Swiss albino, females, by gavage, site: lung, lesion: several types, types named in the paper, dosed 52 weeks, study length 141 weeks); 14.8 mg/kg/day (mouse, strain Swiss albino, males, by gavage, site: lung, lesion: adenoma, dosed 52 weeks, study length 129 weeks); 12.7 mg/kg/day (mouse, strain Swiss albino, males, by gavage, site: lung, lesion: several types, types named in the paper, dosed 52 weeks, study length 129 weeks).

For `CCN=[N+]([O-])CC`, the TD50 was 0.0302 mg/kg/day (rat, strain Fischer 344, males, in drinking water, site: esophagus, lesion: several types, types named in the paper, dosed 30 weeks, study length 55 weeks); 0.0347 mg/kg/day (rat, strain Fischer 344, males, in drinking water, site: liver, lesion: hemangiosarcoma, dosed 30 weeks, study length 55 weeks); 0.0347 mg/kg/day (rat, strain Fischer 344, males, in drinking water, site: liver, lesion: hepatocellular carcinoma, dosed 30 weeks, study length 55 weeks); 0.0971 mg/kg/day (rat, strain Fischer 344, males, in drinking water, site: liver, lesion: neurosarcoma, dosed 30 weeks, study length 55 weeks); 0.022 mg/kg/day (rat, strain Fischer 344, males, in drinking water, site: nasal cavity, lesion: several types, types named in the paper, dosed 30 weeks, study length 55 weeks). The carcinogen call (rat, strain Fischer 344, males, in drinking water, site: liver, lesion: several types, types named in the paper, dosed 30 weeks, study length 55 weeks) is “positive”.

Turning to `C=CCN(N=O)C(N)=O`, the TD50 is, setting by setting: (rat, strain Fischer 344, females, by gavage, site: forestomach, lesion: one or several types, types not named, dosed 30 weeks, study length 104 weeks) 0.476 mg/kg/day; (rat, strain Fischer 344, females, by gavage, site: mammary gland, lesion: adenocarcinoma, dosed 30 weeks, study length 104 weeks) 0.601 mg/kg/day; (rat, strain Fischer 344, females, by gavage, site: uterus, lesion: several types, types named in the paper, dosed 30 weeks, study length 104 weeks) 1.87 mg/kg/day; (rat, strain Fischer 344, males, by gavage, site: Zymbal's gland, lesion: one or several types, types not named, dosed 30 weeks, study length 104 weeks) 0.541 mg/kg/day; (rat, strain Fischer 344, males, by gavage, site: colon, lesion: one or several types, types not named, dosed 30 weeks, study length 104 weeks) 0.541 mg/kg/day; (rat, strain Fischer 344, males, by gavage, site: forestomach, lesion: one or several types, types not named, dosed 30 weeks, study length 104 weeks) 0.266 mg/kg/day. The TD50 (rat, strain Fischer 344, males, by gavage, site: lung, lesion: several types, types named in the paper, dosed 30 weeks, study length 104 weeks) was 0.421 mg/kg/day.

For the compound `CC(F)(Cl)Cl`, the TD50 runs as follows: (rat, strain Sprague-Dawley, males, inhaled, site: any site (literature study), lesion: several types, types named in the paper, dosed 105 weeks, study length 105 weeks) 5790 mg/kg/day; (rat, strain Sprague-Dawley, males, inhaled, site: testis, lesion: interstitial-cell adenoma, dosed 105 weeks, study length 105 weeks) 5260 mg/kg/day.
